Laboratory results published in patent US4605744A, “Imidazole derivatives” (Hoffmann-La Roche Inc., priority 1985, dated 1986).
Values after ≈ are worked out from the molar mass of the structure shown. Counter-ions that a name gives are not always drawn. Like-named read-outs stand apart in the source and are kept apart here.

Experiments:
Assay in all cases: In vitro antibacterial activity (MIC)
Type in all cases: cell-based
C. freundii 8ASM = conditions: Citrobacter freundii, 8ASM, C. freundii 8ASM; read-out: MIC
In short: (§1)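 Overnight cultures, diluted 10^-2, were added at 1.5 μl per well to twofold drug series (128–0.008 μg/ml) in Mueller-Hinton broth.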

C. freundii CDC6 = conditions: Citrobacter freundii
In short: as §1

E. aerogenes 503-478 = conditions: Klebsiella aerogenes, 503478, E. aerogenes 503-478; read-out: MIC
In short: as §1

E. aerogenes 83 = conditions: Klebsiella aerogenes, 83, E. aerogenes 83; read-out: MIC
In short: as §1

E. aerogenes 8 = conditions: Klebsiella aerogenes; E. aerogenes 8; read-out: MIC
In short: as §1

E. cloacae 24 = conditions: Enterobacter cloacae, 24, E. cloacae 24; read-out: MIC
In short: as §1

E. cloacae 6951 = conditions: Enterobacter cloacae, 6951, E. cloacae 6951; read-out: MIC
In short: as §1

E. cloacae 9570A = conditions: Enterobacter cloacae, read-out: MIC
In short: as §1

E. coli 387-1 = system: E. coli 387-1
In short: as §1

E. coli 4 = conditions: Escherichia coli, 4, E. coli 4; read-out: MIC
In short: as §1

E. coli 503-455 = conditions: Escherichia coli, 503455, E. coli 503-455; read-out: MIC
In short: as §1

E. coli R-563 = conditions: Escherichia coli
In short: as §1

K. pneumoniae 35 = conditions: Klebsiella pneumoniae; K. pneumoniae 35; read-out: MIC
In short: as §1

K. pneumoniae 4964 = conditions: Klebsiella pneumoniae, 4964, K. pneumoniae 4964; read-out: MIC
In short: as §1

K. pneumoniae 503-964 = conditions: Klebsiella pneumoniae, 503964; K. pneumoniae 503-964; read-out: MIC
In short: as §1

K. pneumoniae 5096 = conditions: Klebsiella pneumoniae; K. pneumoniae 5096; read-out: MIC
In short: as §1

K. pneumoniae 8357 = conditions: Klebsiella pneumoniae, 8357, K. pneumoniae 8357; read-out: MIC
In short: as §1

K. pneumoniae A = conditions: Klebsiella pneumoniae, K. pneumoniae A; read-out: MIC
In short: as §1

K. pneumoniae HE7 = conditions: Klebsiella pneumoniae; K. pneumoniae HE7; read-out: MIC
In short: as §1

P. aeruginosa 503-56 = conditions: Pseudomonas aeruginosa, 50356, P. aeruginosa 503-56; read-out: MIC
In short: as §1

P. aeruginosa 8710 = conditions: Pseudomonas aeruginosa; P. aeruginosa 8710; read-out: MIC
In short: as §1

P. aeruginosa POW 151 = conditions: Pseudomonas aeruginosa, POW151
In short: as §1

P. aeruginosa Stone 130 = conditions: Pseudomonas aeruginosa, STONE130, read-out: MIC
In short: as §1

P. mirabilis 190 = conditions: Proteus mirabilis, 190, P. mirabilis 190; read-out: MIC
In short: as §1

P. mirabilis 503-1136 = conditions: Proteus mirabilis, 5031136, P. mirabilis 503-1136; read-out: MIC
In short: as §1

P. mirabilis 620A = conditions: Proteus mirabilis, 620A, P. mirabilis 620A; read-out: MIC
In short: as §1

P. rettgeri ATCC 9250 = conditions: Providencia rettgeri, ATCC9250, P. rettgeri ATCC 9250; read-out: MIC
In short: as §1

P. vulgaris 101 = conditions: Proteus vulgaris, 101, P. vulgaris 101; read-out: MIC
In short: as §1

P. vulgaris ATCC 6380 = conditions: Proteus vulgaris
In short: as §1

S. aureus 1059B = conditions: Staphylococcus aureus, read-out: MIC
In short: as §1

S. aureus Giorgio = conditions: Staphylococcus aureus, S. aureus Giorgio; read-out: MIC
In short: as §1

S. aureus Smith = conditions: Staphylococcus aureus, S. aureus Smith; read-out: MIC
In short: as §1

S. faecalis C1 = conditions: Enterococcus faecalis; S. faecalis C1; read-out: MIC
In short: as §1

S. marcescens 5805 = conditions: Serratia marcescens, 5805, S. marcescens 5805; read-out: MIC
In short: as §1

S. marcescens S147 = conditions: Serratia marcescens; S. marcescens S147; read-out: MIC
In short: as §1

S. marcescens S1 = conditions: Serratia marcescens, S1, S. marcescens S1; read-out: MIC
In short: as §1

S. marcescens S2 = conditions: Serratia marcescens; S. marcescens S2; read-out: MIC
In short: as §1

S. marcescens S3 = conditions: Serratia marcescens; S. marcescens S3; read-out: MIC
In short: as §1

S. marcescens S4 = conditions: Serratia marcescens, S4, S. marcescens S4; read-out: MIC
In short: as §1

S. marcescens SM = conditions: Serratia marcescens, read-out: MIC
In short: as §1

S. pneumoniae 6301 = conditions: Streptococcus pneumoniae, 6301, S. pneumoniae 6301; read-out: MIC
In short: as §1

S. pneumoniae SC = conditions: Streptococcus pneumoniae, read-out: MIC
In short: as §1

S. pyogenes 4 = conditions: Streptococcus pyogenes, 4, S. pyogenes 4; read-out: MIC
In short: as §1

S. pyogenes 503-782 = conditions: Streptococcus pyogenes, 503782; S. pyogenes 503-782; read-out: MIC
In short: as §1

S. typhi P58A = conditions: Salmonella enterica, TYPHI
In short: as §1

Compound `CC1(C)S[C@@H]2[C@H](N=CN3CCC(CCCn4ccnc4)CC3)C(=O)N2[C@H]1C(=O)O` [C, [2S-(2alpha,5alpha,6beta)]-6-[[4-[3-(1H-imidazol-1-yl)propyl]-1-piperidinyl]methylene]amino]-3,3-dimethyl-7-oxo-4-thia-1-azabicyclo[3.2.0]heptane-2-carboxylic acid 1.2 mole hydrochloride monohydrate] has an MIC (C. freundii 8ASM) of 4 µg/mL, an MIC (C. freundii CDC6; CDC6, C. freundii CDC6, read-out: MIC) of 16 µg/mL and an MIC (E. aerogenes 503-478) of 128 µg/mL. It also gave an MIC (E. aerogenes 83) of over 128 µg/mL, an MIC (E. aerogenes 8) of over 128 µg/mL and an MIC (E. cloacae 24) of 32 µg/mL. For the same compound, the MIC (E. cloacae 6951) was over 128 µg/mL, the MIC (E. cloacae 9570A) was 16 µg/mL and the MIC (E. coli 387-1; Escherichia coli, 3871, E. coli 387-1, read-out: MIC) was 8 µg/mL. The MIC (E. coli 4) was 8 µg/mL, the MIC (E. coli 503-455) was 128 µg/mL and the MIC (E. coli R-563; R563, E. coli R-563, read-out: MIC) was 4 µg/mL. The MIC (K. pneumoniae 35) was 8 µg/mL, the MIC (K. pneumoniae 4964) was over 128 µg/mL and the MIC (K. pneumoniae 503-964) was 8 µg/mL. It also gave an MIC (K. pneumoniae 5096) of over 128 µg/mL, an MIC (K. pneumoniae 8357) of 16 µg/mL and an MIC (K. pneumoniae A) of 4 µg/mL. It also gave an MIC (K. pneumoniae HE7) of over 128 µg/mL, an MIC (P. aeruginosa 503-56) of over 128 µg/mL and an MIC (P. aeruginosa 8710) of over 128 µg/mL. For the same compound, the MIC (P. aeruginosa POW 151) was over 128 µg/mL, the MIC (P. aeruginosa Stone 130) was over 128 µg/mL and the MIC (P. mirabilis 190) was 8 µg/mL. The MIC (P. mirabilis 503-1136) was 128 µg/mL, the MIC (P. mirabilis 620A) was over 128 µg/mL and the MIC (P. rettgeri ATCC 9250) was 16 µg/mL. The MIC (P. vulgaris 101) was 128 µg/mL, the MIC (P. vulgaris ATCC 6380; ATCC6380, P. vulgaris ATCC 6380, read-out: MIC) was 4 µg/mL and the MIC (S. aureus 1059B) was over 128 µg/mL. The MIC (S. aureus Giorgio) was over 128 µg/mL, the MIC (S. aureus Smith) was over 128 µg/mL and the MIC (S. faecalis C1) was over 128 µg/mL. It also gave an MIC (S. marcescens 5805) of 32 µg/mL, an MIC (S. marcescens S147) of 16 µg/mL and an MIC (S. marcescens S1) of 128 µg/mL. For the same compound, the MIC (S. marcescens S2) was 16 µg/mL, the MIC (S. marcescens S3) was 16 µg/mL and the MIC (S. marcescens S4) was 32 µg/mL. It also gave an MIC (S. marcescens SM) of 8 µg/mL, an MIC (S. pneumoniae 6301) of 128 µg/mL and an MIC (S. pneumoniae SC) of 64 µg/mL. For the same compound, the MIC (S. pyogenes 4) was 64 µg/mL, the MIC (S. pyogenes 503-782) was over 128 µg/mL and the MIC (S. typhi P58A) was 8 µg/mL.

For `CC1(C)S[C@@H]2[C@H](N=CN3CCC(Cn4ccnc4)CC3)C(=O)N2[C@H]1C(=O)O` [Compound A], the MIC (C. freundii 8ASM) was 0.062 µg/mL (≈ 0.158 µM), the MIC (C. freundii CDC6; CDC6) was 0.125 µg/mL (≈ 0.319 µM) and the MIC (E. aerogenes 503-478) was 0.062 µg/mL (≈ 0.158 µM). The MIC (E. aerogenes 83) was 2 µg/mL (≈ 5.11 µM), the MIC (E. aerogenes 8) was 32 µg/mL (≈ 81.7 µM) and the MIC (E. cloacae 24) was 0.5 µg/mL (≈ 1.28 µM). The MIC (E. cloacae 6951) was 4 µg/mL (≈ 10.2 µM), the MIC (E. cloacae 9570A) was 0.5 µg/mL (≈ 1.28 µM) and the MIC (E. coli 387-1; Escherichia coli, 3871) was 0.125 µg/mL (≈ 0.319 µM). The MIC (E. coli 4) was 0.062 µg/mL (≈ 0.158 µM), the MIC (E. coli 503-455) was 2 µg/mL (≈ 5.11 µM) and the MIC (E. coli R-563; R563) was 0.125 µg/mL (≈ 0.319 µM). For the same compound, the MIC (K. pneumoniae 35) was 0.25 µg/mL (≈ 0.639 µM), the MIC (K. pneumoniae 4964) was 2 µg/mL (≈ 5.11 µM) and the MIC (K. pneumoniae 503-964) was 0.016 µg/mL (≈ 0.0409 µM). It also gave an MIC (K. pneumoniae 5096) of 64 µg/mL (≈ 163 µM), an MIC (K. pneumoniae 8357) of 0.25 µg/mL (≈ 0.639 µM) and an MIC (K. pneumoniae A) of under 0.008 µg/mL. The MIC (K. pneumoniae HE7) was over 128 µg/mL, the MIC (P. aeruginosa 503-56) was over 128 µg/mL and the MIC (P. aeruginosa 8710) was over 128 µg/mL. For the same compound, the MIC (P. aeruginosa POW 151) was over 128 µg/mL, the MIC (P. aeruginosa Stone 130) was over 128 µg/mL and the MIC (P. mirabilis 190) was 0.25 µg/mL (≈ 0.639 µM). It also gave an MIC (P. mirabilis 503-1136) of 8 µg/mL (≈ 20.4 µM), an MIC (P. mirabilis 620A) of 16 µg/mL (≈ 40.9 µM) and an MIC (P. rettgeri ATCC 9250) of 0.5 µg/mL (≈ 1.28 µM). The MIC (P. vulgaris 101) was 16 µg/mL (≈ 40.9 µM), the MIC (P. vulgaris ATCC 6380; ATCC6380) was 0.125 µg/mL (≈ 0.319 µM) and the MIC (S. aureus 1059B) was 32 µg/mL (≈ 81.7 µM). The MIC (S. aureus Giorgio) was 8 µg/mL (≈ 20.4 µM), the MIC (S. aureus Smith) was 8 µg/mL (≈ 20.4 µM) and the MIC (S. faecalis C1) was 128 µg/mL (≈ 327 µM). For the same compound, the MIC (S. marcescens 5805) was 1 µg/mL (≈ 2.55 µM), the MIC (S. marcescens S147) was 0.25 µg/mL (≈ 0.639 µM) and the MIC (S. marcescens S1) was 0.25 µg/mL (≈ 0.639 µM). The MIC (S. marcescens S2) was 0.25 µg/mL (≈ 0.639 µM), the MIC (S. marcescens S3) was 0.25 µg/mL (≈ 0.639 µM) and the MIC (S. marcescens S4) was 1 µg/mL (≈ 2.55 µM). For the same compound, the MIC (S. marcescens SM) was 0.25 µg/mL (≈ 0.639 µM), the MIC (S. pneumoniae 6301) was 1 µg/mL (≈ 2.55 µM) and the MIC (S. pneumoniae SC) was 2 µg/mL (≈ 5.11 µM). For the same compound, the MIC (S. pyogenes 4) was 1 µg/mL (≈ 2.55 µM), the MIC (S. pyogenes 503-782) was 128 µg/mL (≈ 327 µM) and the MIC (S. typhi P58A) was 0.25 µg/mL (≈ 0.639 µM).
